The results in this text go back to US7858619B2, “Substituted tetrahydroisochinolines as MMP inhibitors, related production method and use as medicine” (sanofi-aventis, priority 2005, dated 2010).

pIC50: −log10 of the molar value. In brackets after ≈: the same amount, converted by molar mass. Like-named read-outs stand apart in the source and are kept apart here. Some results are limits rather than exact numbers.

One series concerns the target T1, Gelatinase B (MMP-9) (Homo sapiens, UniProt P14780).
T1 construct: All the MMP-9 present in the samples (proMMP-9; active MMP-9 complexed or not complexed with the respective test substance) was isolated; from tissue; host or cells: freshly isolated human serum
Kind of series: Catalytic inhibition of gelatinase B (MMP-9) in human serum (serum-based assay). Format: biochemical. As to the method: Freshly isolated human serum was shock-frozen in the desired volume in liquid N2 and then stored at −80° C. For the catalytic inhibition of MMP-9 in human serum, the appropriate parts by volume of human serum were thawed at room temperature. 100 parts by volume of undiluted, freshly thawed human serum were mixed with 1 part by volume of test substance, thoroughly mixed and incubated at 37° C. for 1 h. The test substances were dissolved in 100% dimethyl sulfoxide, and a 10 mM stock solution was prepared. For dose-effect plots, the test substances were tested in final concentrations of from […] to 0.001 μM for their catalytic inhibition of MMP-9 in human serum. The final concentration of DMSO in the reaction solution was 1% in each case.
Active MMP-9 from the reaction solutions described above was determined with the aid of a MMP-9 activity assay system (Amersham Pharmacia Biotech Europe GmbH).
After the incubation, one part by volume of the reaction mixture described above was diluted with 20 parts by volume of MMP-9 reaction buffer. The samples diluted in this way were transferred to a 96-well assay plate (Amersham Pharmacia Biotech Europe GmbH, Germany) coated with a specific MMP-9 antibody and incubated at 4° C. overnight. In addition, various concentrations of dissolved, recombinant human pro MMP-9 were likewise transferred onto the 96-well assay plate to construct the standard curve.
100 μl of the respective samples were employed per well. All the MMP-9 present in the samples (proMMP-9; active MMP-9 complexed or not complexed with the respective test substance) was isolated from the sample mixture by the specific MMP-9 antibody and bound to a solid matrix.
The immobilized MMP-9 samples were, after the incubation, washed 4× with 200 μl of washing buffer each time. Subsequently, proMMP-9 present was activated with 50 μl of APMA solution at 37° C. for 1.5 h.
The enzymic activity was measured by adding, after the incubation, 50 μl of detection reagent to each sample and mixing. The absorption of the assay plate charged in this way was measured immediately at 405 nm in an ELISA measuring instrument in order to fix time t=0. The assay plate was then incubated at 37° C. for 2 to 3 h and thereafter the absorption at 405 nm was measured.
Using the standard curve employed, the resulting measurements were converted as follows to the remaining, uninhibited active form of MMP-9 in ng/ml. • X=(Y−b)/m*20 • X=active MMP-9 in [ng/mL] • Y=measured absorption • b=intercept on y axis • m=gradient • 20=dilution factor
The inhibitory effect was calculated as percentage inhibition by the following formula: % inhibition=100−(X2*100/X1) • X1=active MMP-9 in [ng/ml] without test substance • X2=active MMP-9 in [ng/ml] with test substance
The IC50, the concentration of inhibitor which is necessary for 50% inhibition of the enzymic activity, was determined graphically by plotting the percentage inhibitions at various inhibitor concentrations.
The composition of the buffer solutions respectively employed was as follows:
Reaction buffer: • 50 mM Tris-HCl pH 7.6 • 1.5 mM NaCl • 0.5 mM CaCl2 • 1 μM ZnCl2 • 0.01% (v/v) BRIJ 35
Recombinant MMP-9 employed for standard: • 0; 0.5; 1.0; 2.0; 4.0; 8.0; 16.0 ng/ml
Washing buffer: • 0.01 M sodium phosphate buffer pH 7.0 • 0.05% Tween20
APMA solution: • 1 mM p-aminophenyl mercuric acetate • 50 mM Tris-HCl pH 7.6 • 1.5 mM NaCl • 0.5 mM CaCl2 • 1 μM ZnCl2 • 0.01% (v/v) BRIJ 35
Detection reagent: • Modified urokinase • S-2444 peptide substrate • 50 mM Tris-HCl pH 7.6 • 1.5 mM NaCl • 0.5 mM CaCl2 • 1 μM ZnCl2 • 0.01% (v/v) BRIJ 35

A short description of series [1]: Thermodynamic solubility in PBS buffer pH 7.4, CLND (chemoluminescent nitrogen detector). In kind it is physicochemical. To be noted: aqueous buffer, thermodynamic from solid, PBS buffer pH 7.4, room temperature. The method, then: The solution is then centrifuged at 14 000 rpm for 5 minutes. The solution is removed from the pellet and filtered through a syringe filter (0.45 μm pore size). The presence of a pellet is checked in order to ensure that a saturated solution was present. The filtered clear solution is analyzed by HPLC.
The dissolved amount of substance is quantified using a generic chromatographic method:
Either a calibration line derived from DMSO stock solutions (1-500 μM) of the appropriate substance is used to quantify the corresponding signal in the UV (254 nm) chromatogram of the solubility sample, or the quantification is undertaken via the peak area in the CLND trace. In the case of CLND quantification, caffeine is used as standard in a calibrating dilution.
The limit of quantitation is determined together with the calibration series. The limit of quantitation is normally 1-5 μM with UV detection, 5-10 μM with CLND quantification (depending on the number of nitrogen atoms in the molecule or the extinction coefficient of the molecule). If the intensity of the signal from the dissolved molecule is below the limit of quantitation, the result is reported as less than the limit of quantitation.
The clear solution after incubation for 16 hours is always measured as duplicates, once diluted 40-fold and once directly without dilution. The sample for which the signal is in the linear range of the calibration is used to determine the solubility.

A further series is described as follows: Protein binding (human). In kind it is in vitro ADME. Particulars: plasma.
Setting [2] is: carboxylic acid derivatives, read-out: MMP-9 activity.
Where [3] appears, read: hydroxamic acid derivatives, read-out: MMP-9*.

T1 sequence (P14780 107-707 limits assumed): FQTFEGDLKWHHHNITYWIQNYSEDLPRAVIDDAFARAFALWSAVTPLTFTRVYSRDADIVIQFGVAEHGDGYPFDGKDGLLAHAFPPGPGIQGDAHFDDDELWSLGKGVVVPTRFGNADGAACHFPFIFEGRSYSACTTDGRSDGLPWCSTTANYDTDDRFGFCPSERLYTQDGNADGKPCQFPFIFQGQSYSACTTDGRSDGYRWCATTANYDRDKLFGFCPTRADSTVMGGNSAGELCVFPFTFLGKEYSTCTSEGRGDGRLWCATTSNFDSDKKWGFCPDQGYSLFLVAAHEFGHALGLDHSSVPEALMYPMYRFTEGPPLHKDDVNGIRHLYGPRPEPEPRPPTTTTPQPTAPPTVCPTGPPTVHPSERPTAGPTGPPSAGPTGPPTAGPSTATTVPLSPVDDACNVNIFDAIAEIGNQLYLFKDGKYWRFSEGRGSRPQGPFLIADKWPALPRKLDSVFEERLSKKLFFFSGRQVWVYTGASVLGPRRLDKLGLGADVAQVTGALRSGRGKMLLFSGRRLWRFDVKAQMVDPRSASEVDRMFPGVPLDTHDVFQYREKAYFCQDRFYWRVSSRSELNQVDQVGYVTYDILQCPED

For `O=C(O)C1c2ccc(OCCN3CCCCC3)cc2CCN1S(=O)(=O)c1ccc(Oc2ccc(F)cc2)cc1` (stereo not shown) [Exemplary compound 2, 2-[4-(4-Fluorophenoxy)benzenesulfonyl]-6-(2-piperidin-1-ylethoxy)-1,2,3,4-tetrahydroisoquinoline-1-carboxylic acid], the pIC50 on Gelatinase B (MMP-9) (setting [2]) is 5.06.
As a reminder, the solubility is the concentration that dissolves in the medium under given conditions. The low end stands for a poorly soluble substance, the high end for a readily soluble substance. By fraction unbound is commonly meant free concentration divided by total concentration. Higher therefore signals weak binding. In series [1], `COc1ccc(Oc2ccc(S(=O)(=O)N3CCc4cc(OCCN5CCCCC5)ccc4C3C(=O)NO)cc2)cc1` (stereo not shown) [Exemplary compound 13, 2-[4-(4-Methoxyphenoxy)benzenesulfonyl]-6-(2-piperidin-1-ylethoxy)-1,2,3,4-tetrahydroisoquinoline-1-carboxylic acid hydroxyamide] showed a solubility at 16 h of 16 µM (≈ 9.31 µg/mL). Besides, the pIC50 on Gelatinase B (MMP-9) (setting [3]) was 6.22. In “Protein binding (human)”, the fraction unbound was 0.011.
On to `CN1CCN(CCCOc2ccc3c(c2)CCN(S(=O)(=O)c2ccc(Oc4ccc(F)cc4)cc2)C3C(=O)NO)CC1` (stereo not shown) [Exemplary compound 3, 2-[4-(4-Fluorophenoxy)benzenesulfonyl]-6-[3-(4-methylpiperazin-1-yl)propoxy]-1,2,3,4-tetrahydroisoquinoline-1-carboxylic acid hydroxamide], for which the concentration in solution in series [1] (solubility at 16 h) was 23 µM (≈ 13.8 µg/mL). On Gelatinase B (MMP-9) (setting [3]), the pIC50 was 6.70. For the same molecule, the fraction unbound in the series “Protein binding (human)” was 0.01.
Consider `COc1ccc(Oc2ccc(S(=O)(=O)N3CCc4cc(OCCN5CCCCC5)ccc4C3C(=O)O)cc2)cc1` (stereo not shown) [Exemplary compound 14, 2-[4-(4-Methoxyphenoxy)benzenesulfonyl]-6-(2-piperidin-1-ylethoxy)-1,2,3,4-tetrahydroisoquinoline-1-carboxylic acid], for which, on Gelatinase B (MMP-9) (setting [2]), the pIC50 is 5.12.
On to `CCN(CC)CCOc1ccc2c(c1)CCN(S(=O)(=O)c1ccc(Oc3ccc(OC)cc3)cc1)C2C(=O)O` (stereo not shown) [Exemplary compound 16, 6-(2-Diethylaminoethoxy)-2-[4-(4-methoxyphenoxy)benzenesulfonyl]-1,2,3,4-tetrahydroisoquinoline-1-carboxylic acid], for which the pIC50 on Gelatinase B (MMP-9) (setting [2]) was 5.18.
In the case of `CCN(CC)CCOc1ccc2c(c1)CCN(S(=O)(=O)c1ccc(Oc3ccc(OC)cc3)cc1)C2C(=O)NO` (stereo not shown) [Exemplary compound 15, 6-(2-Diethylaminoethoxy)-2-[4-(4-methoxyphenoxy)benzenesulfonyl]-1,2,3,4-tetrahydroisoquinoline-1-carboxylic acid hydroxyamide], in series [1], the solubility at 16 h was found to be 107 µM (≈ 61 µg/mL). At Gelatinase B (MMP-9) (setting [3]), the pIC50 was 6.70. This molecule showed a fraction unbound in “Protein binding (human)” of 0.012.
For `CCN(CC)CCOc1ccc2c(c1)CCN(S(=O)(=O)c1ccc(Oc3ccc(F)cc3)cc1)C2C(=O)NO` (stereo not shown) [Exemplary compound 9, 6-(2-Diethylaminoethoxy)-2-[4-(4-fluorophenoxy)benzenesulfonyl]-1,2,3,4-tetrahydroisoquinoline-1-carboxylic acid hydroxyamide], the solubility at 16 h in series [1] was found to be 153 µM (≈ 85.3 µg/mL). The pIC50 at Gelatinase B (MMP-9) (setting [3]) is 7.70. This molecule also showed a fraction unbound in the series “Protein binding (human)” of 0.061.
On the same counts, the results for `O=C(NO)C1c2ccccc2CCN1S(=O)(=O)c1ccc(Oc2ccc(F)cc2)cc1` (stereo not shown) [Comparative compound] are < 1 µM, 5.60 and 0.002.
As to `O=C(O)C1c2ccccc2CCN1S(=O)(=O)c1ccc(Oc2ccc(F)cc2)cc1` (stereo not shown) [Comparative compound], the pIC50 on Gelatinase B (MMP-9) (setting [2]) is < 4.00.
